The first assay deals with RERF-LC-KJ. Nature of the assay: relative viability (nuclei count vs DMSO), 5 days (fraction); higher = more cells survive. To be noted: first compound 0.08 µM. In outline:
(§1)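 Relative viability equals treated-well nuclei counts divided by vehicle-well nuclei counts. Counts came from 4× images of lung cancer cell lines grown in 1536-well plates for 5 days after pin-tool dosing on the day after seeding. Dosing used one drug alone or a fixed anchor-drug dose plus five library-drug doses (not always all listed) in √10 steps, and values are medians of duplicate plates.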
With `CCCCCCCCCCCC1=C(O)C(=O)C=C(O)C1=O` [Embelin] + CC(=O)c1c(C)c2cnc(Nc3ccc(N4CCNCC4)cn3)nc2n(C2CCCC2)c1=O [Palbociclib] (partner 0.5 µM), the relative viability is 1.15.

The compound `CCCCCCCCCCCC1=C(O)C(=O)C=C(O)C1=O` [Embelin] + COc1cccc2cc(-c3nc([C@H]4CC[C@H](C(=O)O)CC4)n4ncnc(N)c34)[nH]c12 [OSI-027] (partner 0.5 µM) gave a relative viability of 0.585.

With `CCCCCCCCCCCC1=C(O)C(=O)C=C(O)C1=O` [Embelin] + Nc1nc2[nH]cc(CCc3ccc(C(=O)N[C@@H](CCC(=O)O)C(=O)O)cc3)c2c(=O)[nH]1 [Pemetrexed] (partner 0.2 µM), the relative viability came to 0.502.

The same assay, now with this note: first compound 0.8 µM.
Compound `CCCCCCCCCCCC1=C(O)C(=O)C=C(O)C1=O` [Embelin] + CCNC(=O)c1noc(-c2cc(C(C)C)c(O)cc2O)c1-c1ccc(CN2CCOCC2)cc1 [Luminespib] (partner 0.01 µM) had a relative viability of 1.13.

For `CCCCCCCCCCCC1=C(O)C(=O)C=C(O)C1=O` [Embelin] + Cc1nc(Nc2ncc(C(=O)Nc3c(C)cccc3Cl)s2)cc(N2CCN(CCO)CC2)n1 [Dasatinib] (partner 0.075 µM), the relative viability turned out to be 0.983.

`CCCCCCCCCCCC1=C(O)C(=O)C=C(O)C1=O` [Embelin] + CC(=O)c1c(C)c2cnc(Nc3ccc(N4CCNCC4)cn3)nc2n(C2CCCC2)c1=O [Palbociclib] (partner 0.5 µM): the relative viability turned out to be 1.15.

As for `CCCCCCCCCCCC1=C(O)C(=O)C=C(O)C1=O` [Embelin] + COc1cccc2cc(-c3nc([C@H]4CC[C@H](C(=O)O)CC4)n4ncnc(N)c34)[nH]c12 [OSI-027] (partner 0.5 µM), the relative viability worked out at 0.529.

Regarding `CCCCCCCCCCCC1=C(O)C(=O)C=C(O)C1=O` [Embelin] + Nc1nc2[nH]cc(CCc3ccc(C(=O)N[C@@H](CCC(=O)O)C(=O)O)cc3)c2c(=O)[nH]1 [Pemetrexed] (partner 0.2 µM), the relative viability is 0.498.

Staying with this assay, now noted: first compound 2.53 µM.
Compound `CCCCCCCCCCCC1=C(O)C(=O)C=C(O)C1=O` [Embelin] + CCNC(=O)c1noc(-c2cc(C(C)C)c(O)cc2O)c1-c1ccc(CN2CCOCC2)cc1 [Luminespib] (partner 0.01 µM) returned a relative viability of 1.51.

In turn, `CCCCCCCCCCCC1=C(O)C(=O)C=C(O)C1=O` [Embelin] + Cc1nc(Nc2ncc(C(=O)Nc3c(C)cccc3Cl)s2)cc(N2CCN(CCO)CC2)n1 [Dasatinib] (partner 0.075 µM) displayed a relative viability of 0.81.

The compound `CCCCCCCCCCCC1=C(O)C(=O)C=C(O)C1=O` [Embelin] + CC(=O)c1c(C)c2cnc(Nc3ccc(N4CCNCC4)cn3)nc2n(C2CCCC2)c1=O [Palbociclib] (partner 0.5 µM) gave a relative viability of 1.24.

In turn, `CCCCCCCCCCCC1=C(O)C(=O)C=C(O)C1=O` [Embelin] + COc1cccc2cc(-c3nc([C@H]4CC[C@H](C(=O)O)CC4)n4ncnc(N)c34)[nH]c12 [OSI-027] (partner 0.5 µM) yielded a relative viability of 0.545.

`CCCCCCCCCCCC1=C(O)C(=O)C=C(O)C1=O` [Embelin] + Nc1nc2[nH]cc(CCc3ccc(C(=O)N[C@@H](CCC(=O)O)C(=O)O)cc3)c2c(=O)[nH]1 [Pemetrexed] (partner 0.2 µM) showed a relative viability of 0.504.

Staying with this assay, now noted: first compound 8 µM.
The compound `CCCCCCCCCCCC1=C(O)C(=O)C=C(O)C1=O` [Embelin] + CCNC(=O)c1noc(-c2cc(C(C)C)c(O)cc2O)c1-c1ccc(CN2CCOCC2)cc1 [Luminespib] (partner 0.01 µM) yielded a relative viability of 0.55.

The compound `CCCCCCCCCCCC1=C(O)C(=O)C=C(O)C1=O` [Embelin] + Cc1nc(Nc2ncc(C(=O)Nc3c(C)cccc3Cl)s2)cc(N2CCN(CCO)CC2)n1 [Dasatinib] (partner 0.075 µM) displayed a relative viability of 0.704.

With `CCCCCCCCCCCC1=C(O)C(=O)C=C(O)C1=O` [Embelin] + CC(=O)c1c(C)c2cnc(Nc3ccc(N4CCNCC4)cn3)nc2n(C2CCCC2)c1=O [Palbociclib] (partner 0.5 µM), the relative viability was determined as 0.979.

In turn, `CCCCCCCCCCCC1=C(O)C(=O)C=C(O)C1=O` [Embelin] + COc1cccc2cc(-c3nc([C@H]4CC[C@H](C(=O)O)CC4)n4ncnc(N)c34)[nH]c12 [OSI-027] (partner 0.5 µM) yielded a relative viability of 0.494.

Compound `CCCCCCCCCCCC1=C(O)C(=O)C=C(O)C1=O` [Embelin] + Nc1nc2[nH]cc(CCc3ccc(C(=O)N[C@@H](CCC(=O)O)C(=O)O)cc3)c2c(=O)[nH]1 [Pemetrexed] (partner 0.2 µM) returned a relative viability of 0.474.

The subject of a further assay is LK-2. The assay is described as above. To be noted: first compound 0.08 µM. In outline: as §1
Compound `CCCCCCCCCCCC1=C(O)C(=O)C=C(O)C1=O` [Embelin] + CCNC(=O)c1noc(-c2cc(C(C)C)c(O)cc2O)c1-c1ccc(CN2CCOCC2)cc1 [Luminespib] (partner 0.01 µM) yielded a relative viability of 0.17.

Compound `CCCCCCCCCCCC1=C(O)C(=O)C=C(O)C1=O` [Embelin] + Cc1nc(Nc2ncc(C(=O)Nc3c(C)cccc3Cl)s2)cc(N2CCN(CCO)CC2)n1 [Dasatinib] (partner 0.075 µM) had a relative viability of 0.26.

The compound `CCCCCCCCCCCC1=C(O)C(=O)C=C(O)C1=O` [Embelin] + CC(=O)c1c(C)c2cnc(Nc3ccc(N4CCNCC4)cn3)nc2n(C2CCCC2)c1=O [Palbociclib] (partner 0.5 µM) yielded a relative viability of 0.647.

`CCCCCCCCCCCC1=C(O)C(=O)C=C(O)C1=O` [Embelin] + COc1cccc2cc(-c3nc([C@H]4CC[C@H](C(=O)O)CC4)n4ncnc(N)c34)[nH]c12 [OSI-027] (partner 0.5 µM): the relative viability turned out to be 0.246.

Regarding `CCCCCCCCCCCC1=C(O)C(=O)C=C(O)C1=O` [Embelin] + Nc1nc2[nH]cc(CCc3ccc(C(=O)N[C@@H](CCC(=O)O)C(=O)O)cc3)c2c(=O)[nH]1 [Pemetrexed] (partner 0.2 µM), the relative viability came out at 0.335.

The same assay, now with this note: first compound 0.8 µM.
With `CCCCCCCCCCCC1=C(O)C(=O)C=C(O)C1=O` [Embelin] + CCNC(=O)c1noc(-c2cc(C(C)C)c(O)cc2O)c1-c1ccc(CN2CCOCC2)cc1 [Luminespib] (partner 0.01 µM), the relative viability was determined as 0.281.

Turning to `CCCCCCCCCCCC1=C(O)C(=O)C=C(O)C1=O` [Embelin] + Cc1nc(Nc2ncc(C(=O)Nc3c(C)cccc3Cl)s2)cc(N2CCN(CCO)CC2)n1 [Dasatinib] (partner 0.075 µM), the relative viability was 0.427.

The compound `CCCCCCCCCCCC1=C(O)C(=O)C=C(O)C1=O` [Embelin] + CC(=O)c1c(C)c2cnc(Nc3ccc(N4CCNCC4)cn3)nc2n(C2CCCC2)c1=O [Palbociclib] (partner 0.5 µM) gave a relative viability of 0.753.

In the case of `CCCCCCCCCCCC1=C(O)C(=O)C=C(O)C1=O` [Embelin] + COc1cccc2cc(-c3nc([C@H]4CC[C@H](C(=O)O)CC4)n4ncnc(N)c34)[nH]c12 [OSI-027] (partner 0.5 µM), the relative viability worked out at 0.226.

`CCCCCCCCCCCC1=C(O)C(=O)C=C(O)C1=O` [Embelin] + Nc1nc2[nH]cc(CCc3ccc(C(=O)N[C@@H](CCC(=O)O)C(=O)O)cc3)c2c(=O)[nH]1 [Pemetrexed] (partner 0.2 µM) returned a relative viability of 0.227.

Still in this assay, the particulars now being: first compound 2.53 µM.
For the compound `CCCCCCCCCCCC1=C(O)C(=O)C=C(O)C1=O` [Embelin] + CCNC(=O)c1noc(-c2cc(C(C)C)c(O)cc2O)c1-c1ccc(CN2CCOCC2)cc1 [Luminespib] (partner 0.01 µM), the relative viability was determined as 0.189.

`CCCCCCCCCCCC1=C(O)C(=O)C=C(O)C1=O` [Embelin] + Cc1nc(Nc2ncc(C(=O)Nc3c(C)cccc3Cl)s2)cc(N2CCN(CCO)CC2)n1 [Dasatinib] (partner 0.075 µM) yielded a relative viability of 0.304.

`CCCCCCCCCCCC1=C(O)C(=O)C=C(O)C1=O` [Embelin] + CC(=O)c1c(C)c2cnc(Nc3ccc(N4CCNCC4)cn3)nc2n(C2CCCC2)c1=O [Palbociclib] (partner 0.5 µM) yielded a relative viability of 0.806.

These data come from the supplement of paper PMC10307832.
